Tests used:
[1] = molecular target: T1, Human Prostaglandin-H Synthase—1 (hPGH-1) (Homo sapiens, UniProt P23219); experiment: Human prostaglandin-H synthase-1 (hPGH-1) inhibition assay in transfected COS-7 cells (PGE-2 readout); assay type: cell-based; conditions: COS-7 cells transfected with hPGH-1, arachidonic acid 20 μM, PGE-2 measured
T1 construct: expressed in transfected cells; host or cells: COS-7 cells (ATCC), transient transfection with Lipofectamine 2000
Method: (§1) The cells were grown in 10% fetal bovine serum (FBS) in DMEM medium (Invitrogen Life Technologies) at 37° C. in an atmosphere with 5% CO2 and 90% moisture. 20 000 cells/well were plated in 96 well plate (Falcon). The cells in a negative control were cultured only in the medium (NC), while the secretion of TNF-α in a positive control was stimulated by the addition of 500 pg/mL lipopolysaccharide (LPS, E. coli serotype 0111:B4, SIGMA) (PC) and the effect of the tested substances on TNF-α secretion was tested after their addition to cell cultures stimulated with LPS (TS). […] Human Prostaglandin-H Synthase—1 (hPGH-1) and Human Prostaglandin-H Synthase—2 (hPGH-2) Inhibition Assay
(§2) Genes coding hPGH-1 and hPGH-2 were amplified with PCR using Platinum pfx DNA polymerase (Invitrogen Life Technologies) from human placenta cDNA library (Stratagene). Primer sequences used for hPGH-1 are: • 5′ […] 3′ (SEQ ID NO: 1) and • 5′ […] 3′ (SEQ ID NO: 2); for hPGH-2 • 5′ […] 3′ (SEQ ID NO: 3) and • 5′ […] 3′ (SEQ ID NO: 4). PCR products were cloned into HindIII and BamHI restriction sites of pcDNA3.1 (Hygro(+) plasmid (Invitrogen Life Technologies), sequences were confirmed by sequencing.
(§3) Transfection was performed on COS-7 cells (ATCC), cells were grown in 10% foetal bovine serum (FBS) in DMEM medium (Invitrogen Life Tecnologies), 37° C. in an atmosphere with 5% CO2 and 90% moisture, to full confluency in 24 well plate (Falcon). 1 μg plasmid DNA (pcDNA Hygro 3.1 (+) containing PGH-1 or PGH-2 gene, or pcDNA Hygro 3.1 (+) for negative control samples) was combined with 1,5 μl Lipofectamine 2000 (Invitrogen Life Technologies), following manufacturer's recommendations. […] After 30 minutes supernatants were removed and PGE-2 was measured with PGE-2 assay kit (Cayman) following manufacturer's instructions.
(§4) % inhibition was calculated by the following equation: % inhibition=(1−sample PGE-2 concentration/positive control PGE-2 concentration)*100 In Vivo Model of LPS-Induced Exccessive Secretion of TNF-α in Mice

TNF-α [2] = experiment: In vivo model of LPS-induced excessive secretion of TNF-α in mice; conditions: male BALB/c mice, substance p.o. 30 minutes prior to i.p. LPS 25 μg/animal, plasma TNF-α two hours later; dose not given
Method: as §4
TNF-α secretion in mice was induced according to the previously described method (Badger A. M. Et al., J. of Pharmac. and Env. Therap. 279 1996 1453-1461). In the test, male BALB/c mice at an age of 8 to 12 weeks in groups of 6 to 10 animals were used. Animals were treated p.o. either only with the solvent (in a negative and a positive control) or with solutions of the substance 30 minutes prior to the i.p. treatment with LPS (E. coli serotype 0111:B4, Sigma) in a dose of 25 μg/animal. Two hours later the animals were euthanized by means of i.p. injection of Roumpun (Bayer) and Ketanest (Park-Davis). […] The TNF-α level in the plasma was determined by ELISA (Biosource, R&D Systems) according to the process prescribed by the manufacturer. The test sensitivity was <3 pg/mL TNF-α. The percentage inhibition of TNF-α production was calculated by the following equation: % inhibition=[1−(TS—NC)/(PC—NC)]*100

[3] = molecular target: T2, Human Prostaglandin-H Synthase—2 (hPGH-2) (Homo sapiens, UniProt P35354); experiment: Human prostaglandin-H synthase-2 (hPGH-2) inhibition assay in transfected COS-7 cells (PGE-2 readout); assay type: cell-based; conditions: COS-7 cells transfected with hPGH-2, arachidonic acid 20 μM, PGE-2 measured
T2 construct: expressed in transfected cells; host or cells: COS-7 cells (ATCC), transient transfection with Lipofectamine 2000
T2 sequence (P35354 18-604): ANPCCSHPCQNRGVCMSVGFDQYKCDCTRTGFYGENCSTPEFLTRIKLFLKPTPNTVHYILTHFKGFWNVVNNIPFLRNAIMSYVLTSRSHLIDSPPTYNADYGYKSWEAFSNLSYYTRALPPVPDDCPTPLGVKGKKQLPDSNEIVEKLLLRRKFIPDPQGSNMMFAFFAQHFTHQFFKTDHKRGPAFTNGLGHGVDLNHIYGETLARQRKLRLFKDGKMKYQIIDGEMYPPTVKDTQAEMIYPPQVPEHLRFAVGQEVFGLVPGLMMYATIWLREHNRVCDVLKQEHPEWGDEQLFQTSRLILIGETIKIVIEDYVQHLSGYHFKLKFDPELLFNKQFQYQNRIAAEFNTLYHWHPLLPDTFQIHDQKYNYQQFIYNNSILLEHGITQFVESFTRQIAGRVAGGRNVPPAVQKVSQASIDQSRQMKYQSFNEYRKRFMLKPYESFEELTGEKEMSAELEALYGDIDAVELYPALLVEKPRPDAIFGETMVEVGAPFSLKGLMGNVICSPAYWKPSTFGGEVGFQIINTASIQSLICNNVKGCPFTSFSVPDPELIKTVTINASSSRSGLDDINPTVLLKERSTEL
Method: as §1, §2, §3, §4

TNF-α [4] = experiment: Determination of TNF-α secretion in LPS-stimulated mononuclear cells of human peripheral blood in vitro (ELISA); assay type: cell-based; conditions: human PBMC, LPS 1 μg/mL, 18 to 24 hours, TNF-α in supernatant by ELISA
Method: Determination of TNF-α and IL-1β Secretion in Mononuclear Cells of Human Peripheral Blood In Vitro
Peripheral blood mononuclear cells (PMBC) were prepared from heparinized whole blood after separation of PMBC on Ficoll-Hypaque (Amersham-Pharmacia). For the determination of TNF-α level, 3.5-5×10^4 cells were cultured in a total volume of 200 μl within a period of 18 to 24 hours on microtiter flat bottom plates (96 wells, Falcon) in RPMI 1640 medium supplemented with 10% of heat-inactivated human AB serum (Croatian Centre For Transfusion Medicine, Zagreb), 100 units/mL of penicillin, […] and 20 mM HEPES (Invitrogen Life Technologies). The cells were incubated at 37° C. in an atmosphere with 5% CO2 and 90% moisture. The cells in a negative control were cultured only in the medium (NC), while the secretion of TNF-α in a positive control was stimulated by the addition of 1 μg/mL lipopolysaccharide (LPS, E. coli serotype 0111:B4, SIGMA) (PC) and the effect of the tested substances on TNF-α secretion was tested after their addition to cell cultures stimulated with LPS (TS). […] The test sensitivity was <3 pg/mL TNF-α. The determination of IL-1β level was performed as described for TNF-α determination, only that 1×10^5 cells/well and 0.1 ng/mL of LPS were used. IL-1β level was determined by ELISA (R&D Systems). […] IC-50 was calculated using Graph Pad Prism Software. Determination of TNF-α Secretion by RAW 264.7 Cells

T1 sequence (P23219 24-599): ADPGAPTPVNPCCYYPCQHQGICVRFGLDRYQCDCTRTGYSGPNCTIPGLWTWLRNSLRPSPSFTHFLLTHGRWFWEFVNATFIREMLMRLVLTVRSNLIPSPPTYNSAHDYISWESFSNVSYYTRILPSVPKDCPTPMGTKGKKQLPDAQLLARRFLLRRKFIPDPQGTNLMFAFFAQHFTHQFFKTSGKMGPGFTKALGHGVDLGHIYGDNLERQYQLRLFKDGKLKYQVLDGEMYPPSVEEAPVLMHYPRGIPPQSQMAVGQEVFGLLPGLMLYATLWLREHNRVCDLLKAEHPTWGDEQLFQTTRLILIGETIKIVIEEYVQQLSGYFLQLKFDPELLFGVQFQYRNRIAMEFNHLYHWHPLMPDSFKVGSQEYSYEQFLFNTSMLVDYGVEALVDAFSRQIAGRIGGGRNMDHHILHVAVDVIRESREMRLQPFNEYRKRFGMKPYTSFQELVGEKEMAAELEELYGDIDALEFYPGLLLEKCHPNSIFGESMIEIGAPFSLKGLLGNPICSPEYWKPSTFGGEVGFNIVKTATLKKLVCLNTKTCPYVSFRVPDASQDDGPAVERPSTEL

| IC50 [1] [µM] | IC50 [3] [µM] | IC50 (TNF-α [4]) [µM] | Compound | LPS induced excessive secretion of TNF-α % of inhibition (TNF-α [2]) [%] |
| --- | --- | --- | --- | --- |
| > 30 | 1 | 1 | CC[C@H]1OC(=O)[C@H](C)[C@@H](O[C@H]2C[C@@](C)(OC)[C@@H](O)[C@H](C)O2)[C@H](C)[C@@H](O[C@@H]2O[C@H](C)C[C@H](N(C)C)[C@H]2O)[C@](C)(O)C[C@@H](C)CN(CCCNC(=O)Cc2c(C)n(C(=O)c3ccc(Cl)cc3)c3ccc(OC)cc23)[C@H](C)[C@@H](O)[C@]1(C)O [Ex. 4] | 70 |
| 10 | 10 | 1 | CC[C@H]1OC(=O)[C@H](C)[C@@H](O[C@H]2C[C@@](C)(OC)[C@@H](O)[C@H](C)O2)[C@H](C)[C@@H](O[C@@H]2O[C@H](C)C[C@H](N(C)C)[C@H]2O)[C@](C)(O)C[C@@H](C)CN(CCCNC(=O)[C@@H](C)c2ccc(CC(C)C)cc2)[C@H](C)[C@@H](O)[C@]1(C)O [Ex. 5] | 66 |
| > 30 | > 30 | 10 | CC[C@H]1OC(=O)[C@H](C)[C@@H](O)[C@H](C)[C@@H](O[C@@H]2O[C@H](C)C[C@H](N(C)C)[C@H]2O)[C@](C)(O)C[C@@H](C)CN(CCCNC(=O)Cc2c(C)n(C(=O)c3ccc(Cl)cc3)c3ccc(OC)cc23)[C@H](C)[C@@H](O)[C@]1(C)O [Ex. 10] | 47 |
| – | – | > 30 | CC(C)Cc1ccc([C@@H](C)C(=O)O)cc1 [S-(+)-Ibuprofen, S-(+)-ibuprofen, reference compound] | – |

Reference: patent publication US7109176B2, “Nonsteroidal anti-inflammatory substances, compositions and methods for their use” (Pliva-Istrazivacki Institut D.o.o., priority 2002, dated 2006)
